Results reported in patent US6703362B1, “Random peptides that bind to gastro-intestinal tract (GIT) transport receptors and related methods” (Cytogen Corporation, priority 1997, dated 2004).
Square brackets hold non-standard residues; d marks the D form. Peptide text beside a SMILES is read from it. * marks the point of attachment. Dansyl = CN(C)c1cccc2c(S(=O)(=O)*)cccc12

Assays:
fixed Caco-2 cells [1] = assay: Inhibition of GST-peptide fusion binding to fixed Caco-2 cells by synthetic peptides; settings: peptide from 100 μg/ml serially diluted; GST fusion 10 μg
Excerpt: Caco-2 cells were fixed, treated with phenylhydrazine and blocked as described above. […] GST-PAX2 binding was inhibited by ZElan032, ZElan033, and ZElan035.

[2] = test system: P100 fractions harvested from Caco-2 cells; assay: Binding of dansylated peptides to P100 fractions and peptide/particle correlation
Protocol: Caco-2 cell membrane (P100) and cytosolic (S100) fractions were prepared using a modification of the method described in Kinsella, B. T., O'Mahony, D. J. and G. A. FitzGerald, 1994, J. Biol. Chem. 269(47): 29914-29919. Confluent Caco-2 cell monolayers (grown in 75 cm^2 flasks for up to 1 week at 37° C. and 5% CO2) were washed twice in Dulbecco's PBS (DPBS) and the cells were harvested by centrifugation at 1000 rpm after treatment with 10 mM EDTA-DPBS. The cells were washed 3 times in DPBS and the final cell pellet was resuspended in 3 volumes of ice cold HED buffer (20 mM HEPES (pH 7.67), 1 mM EGTA, 0.5 mM dithiothreitol, 1 mM phenylmethylsulphonyl fluoride (PMSF)). The cells were allowed to swell for 5 min on ice prior to homogenization for 30 sec. The homogenates were centrifuged at 40,000 rpm for 45 min at 4° C. The supernatant (S100) was removed and the pellet (P100) was resuspended in HEDG buffer (20 mM HEPES (pH 7.67), 1 mM EGTA, 0.5 mM dithiothreitol, 100 mM NaCl, 10% glycerol, 1 mM PMSF). Protein concentrations were determined using the Bradford assay (Bradford, M. M., 1976, Anal. Biochem. 72: 248-254).
Binding of peptide and/or peptide-coated PLGA particles to membrane (P100) and cytosolic (S100) fractions was assessed by detection of the dansyl moiety incorporated in the peptide. Costar ninety six well ELISA plates were coated with S100 and P100 fractions (100 μg/ml in 0.05 M NaHCO3) overnight at 4° C. The plates were blocked with 0.5% bovine serum albumin in DPBS for 1 h at room temperature and washed 3 times in 1% BSA-DPBS. […] After washing 3 times in 1% BSA-DPBS 100 μl of TMB substrate (3,3′,5′,5-tetramethylbenzidine; Microwell Peroxidase Substrate System (Kirkegaard and Perry Laboratories 50-76-00)) was added and the optical density was measured at 650 nm at various time intervals.
Binding of dansylated peptides to P100 fractions was assessed to determine if peptide binding was predictive of peptide-coated particle binding.

[3] = Peptide stability in simulated intestinal fluid (SIF); format: in vitro ADME
Protocol: The relative stability for ZElanO3l, ZElanO53 and ZElan054 was determined in simulated intestinal fluid (SIF) SIF was made by dissolving 100 mg of pancreatin (Sigma cat#P-1625, lot# 122H0812)in 8.4 ml of phosphate stock solution, adjusting the pH to 7.5 with 0.2N NaOH and adjusting the volume to 10 ml with water.
Peptide (3.25 mg) was dissolved in 3.25 ml of 10,000 fold diluted SIF solution at 37° C. Aliquots (0.7 ml) of the digestion solution were then withdrawn at <1 min, 1 h, 3 h, and 21 h or 24 h. The samples were quickly passed through a syringe filter (Millipore Millex-GV 0.22 μm, part# SLGV025LS, lot# H2BM95250) and 300 μL of the filtered solution was immediately injected onto a Hewlett-Packard HPLC system equipped with a C-8 column (Applied Biosystems column and guard column: column-p/n 0711-0023 Spheri-5 ODS 5 μm, 220×4.6 mm). The products were eluted at 1.5 ml/min using an acetonitrile-water gradient. The major fluorescent peaks were collected, lyopholized and identified by MS analysis.

[4] = test system: P100 membrane fractions derived from Caco-2 cells; assay: Dansylated peptide ELISA: relative binding of PAX2 and HAX42 peptides to P100 (ratio to ZElan021); settings: ratio to ZElan021 = 1.00
Method in brief: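 P100 membrane fraction from Caco-2 cells (normally 100 μg/ml) coated in carbonate buffer pH9.6, blocked with 2% Marvel/PBS, then incubated with dansylated peptides. Detection via anti-mouse HRP conjugate and TMB, OD read at 650nm; binding expressed relative to ZElan021.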

[5] = test system: fixed Caco-2 or C2BBe1 cells; assay: ELISA of GST fusion proteins on fixed Caco-2 or C2BBe1 cells; format: binding
Protocol: Fixed Caco-2, C2BBe1, and A431 cell plates were prepared by growing cells on tissue culture treated microtiter plates. When cells were confluent, plates were fixed with 10% formaldehyde, washed twice with PBS and stored with 0.5%BSA-PBS at −20° C. […] The standard ELISA procedure was followed at this point.
The standard ELISA procedure was modified as follows. GST proteins were diluted to an appropriate concentration in PBS containing lkBSA and 0.05% Tween20 (1%BPT), titered and incubated one hour at room temperature. Following five washes an anti-GST monoclonal antibody was added (Sigma, St. Louis Clone GST-2 diluted 1:10,000 in 1%BPT) and incubated one hour. After five more washes goat anti-mouse IgG2b-HRP was added (Southern Biotechnology Associates Inc., Birmingham, Ala., diluted 1:4000 in 1%BPT) and incubated one hour. After five washes plates were developed with TMB peroxidase substrate (Kirkegard and Perry, Gaithersburg, Md.). All data is presented with background binding subtracted.

[6] = test system: polarized Caco-2 monolayers; assay: Transport of GST-peptide fusions across polarized Caco-2 monolayers (anti-GST ELISA); format: in vitro ADME
Protocol: Transport and uptake of GST-peptide fusions and deletion derivatives across cultured polarized Caco-2 monolayers over 4 hours in HBSS buffer was examined using an anti-GST ELISA assay. In another experiment, transport and uptake of GST-peptide fusions and deletion derivatives across cultured polarized Caco-2 monolayers over 24 hours in serum-free medium (SFM) was examined using an anti-GST ELISA assay.
a) 4 h HBSS study: […] (TER) across the Caco-2 monolayers grown on snapwells (passage 33; 23 days old) was measured to confirm monolayer integrity before beginning the experiment. The medium was removed and the cells were washed once with bHBSS. bHBSS containing 100 μM chloroquine was added and the cells were incubated for 2 h at 37° C. The bHBSS+chloroquine was replaced with 0.5 ml bHBSS containing GST-peptide fusions (10 μg/ml) and the cells were incubated as before. […] At 4h, TER was measured, the apical medium was sampled and the apical reservoir was washed 6 times with HBSS. […]
b) 24 h SFM study: Transepithelial electrical flux (TER) across the Caco-2 monolayers grown on snapwells (passage 33; 23 days old) was measured to confirm monolayer integrity before beginning the experiment. […] After 24 hours, TER readings were taken, and samples from the basolateral and apical reservoirs were removed. […]

fixed Caco-2 cells [7] = assay: Effect of thrombin cleavage on binding of GST-peptide fusions to fixed Caco-2 cells; settings: thrombin 18 h at room temperature
Protocol: Binding of intact and thrombin-cleaved GST-peptide fusions to fixed Caco-2 cells was compared.
Thirty micrograms of each GST-peptide was treated with bovine thrombin (1 μ/ml; 0.4 NIH units; Sigma CN.T9681) for 18 h at room temperature in 2OmM Tris-HCl pH8.0, 150 mM NaCl, 2.5 mM CaCl2. Controls were similarly treated without addition of thrombin. Ten micrograms of each GST-peptide fusion was removed for PAGE analysis, and 10 μg of fusions were added in duplicate to the fixed Caco-2 cells before 5-fold serial dilutions (1% BPT diluent). The fusions were allowed to bind for 1 h at room temperature. Following 6 washes with 1% BPT, binding was assayed by ELISA.

[8] = test system: ZElan024 (P31), ZElan018 (PAX2), ZElan021 (HAX42); assay: Crossreactive binding of GST fusions to dansylated peptides; settings: 0.5 μg/ml concentration used in competition assays

In the case of `C[C@@H](O)[C@H](NC(=O)[C@@H](N)CCCCNS(=O)(=O)c1cccc2c(N(C)C)cccc12)C(=O)N[C@H](CCCNC(=N)N)C(=O)N[C@@H](CCCCN)C(=O)N[C@@H](CO)C(=O)N[C@@H](CO)C(=O)N[C@H](CCCNC(=N)N)C(=O)N[C@@H](CO)C(=O)N[C@@H](CC(N)=O)C(=O)N1CCC[C@H]1C(=O)N[C@H](CCCNC(=N)N)C(=O)NCC(=O)N[C@H](CCCNC(=N)N)C(=O)N[C@H](CCCNC(=N)N)C(=O)N[C@@H](Cc1c[nH]cn1)C(=O)N1CCC[C@H]1C(=O)NCC(N)=O` [ZElan053, H2N—K(dns)TrKSSrSNPrGrrHPG—CONH2] (H-K(Dansyl)T[dR]KSS[dR]SNP[dR]G[dR][dR]HPG-NH2), the “inhibition of GST-P31 binding” value (fixed Caco-2 cells [1]) is reported as “inhibited”, the “binding of dansylated peptide to P100 compared to scrambled PAX2 control” value (“binding … compared to scrambled PAX2 control” below) ([2]; initial assay) is reported as “binding at the highest dilution only” and the “Rel. Stab.” value ([3]; rank, 1 = most stable to SIF) is reported as 1. It also gave a remaining at 1 min, 1 mg/ml ([3]; simulated intestinal fluid (pancreatin), pH 7.5, 10,000 fold diluted SIF, 37° C., read-out: Percent Remaining at: 1 m) of 100%, a remaining at 1 h, 1 mg/ml ([3]; simulated intestinal fluid (pancreatin), pH 7.5, 10,000 fold diluted SIF, 37° C., read-out: Percent Remaining at: 1 h) of 98.3% and a remaining at 3 h, 1 mg/ml ([3]; simulated intestinal fluid (pancreatin), pH 7.5, 10,000 fold diluted SIF, 37° C., read-out: Percent Remaining at: 3 h) of 98.1%. The remaining at 24 h, 1 mg/ml ([3]; simulated intestinal fluid (pancreatin), pH 7.5, 10,000 fold diluted SIF, 37° C., read-out: Percent Remaining at: 24 h) was 94%.
For “H-K(Dansyl)SDHALGTNLRSDNAKEPGDYNCCGNGNSTGRKVFNRRRPSAIPT-NH2 (cysteines drawn unpaired) [ZElan021]”, the “inhibition of GST-HAX42 binding” value (fixed Caco-2 cells [1]) was “not inhibited”, the “binding … compared to scrambled PAX2 control” value ([2]; initial assay) was “strong binding” and the “Binding value at 20 μg/ml” value ([4]; HAX42 peptides) was 1.00. For the same compound, the “Binding value at 25 μg/ml” value ([4]; HAX42 peptides, first 25 μg/ml column) was 1.00, the “Binding value at 50 μg/ml” value ([4]; HAX42 peptides, first 50 μg/ml column) was 1.00 and the “Binding value at 25 μg/ml” value ([4]; HAX42 peptides, second 25 μg/ml column) was 1.00. The “Binding value at 50 μg/ml” value ([4]; HAX42 peptides, second 50 μg/ml column) was 1.00 and the “Binding value at 25 μg/ml” value ([4]; HAX42 peptides, third 25 μg/ml column) was 1.00.
In the case of “H-K(Dansyl)STPPSREAYSRPYSVDSDSDTNAKHSSHNRRLRTRSRPNG-NH2 [ZElan018]”, the “inhibition of GST-HAX42 binding” value (fixed Caco-2 cells [1]) is reported as “inhibited”, the “binding … compared to scrambled PAX2 control” value ([2]; repeat assay) is reported as “indistinguishable from the scrambled PAX2 control” and the “Binding value at 20 μg/ml” value ([4]; PAX2 peptides, first 20 μg/ml column) is reported as −0.33. For the same compound, the “Binding value at 50 μg/ml” value ([4]; PAX2 peptides, first 50 μg/ml column) was 0.95, the “Binding value at 20 μg/ml” value ([4]; PAX2 peptides, second 20 μg/ml column) was 1.07 and the “Binding value at 50 μg/ml” value ([4]; PAX2 peptides, second 50 μg/ml column) was 1.01.
For “gst-RYKHDIGCDAGVDKKSSSVRGGCGAHSSPPRAGRGPRGTMVSRL [GST-DCX8]”, the “binding to fixed Caco-2 or C2BBe1 cells relative to GST control” value [5] was “bound fixed Caco-2 or C2BBe1 cells”, the “flux relative to GST alone” value [6] was “higher flux than GST alone” and the “effect of thrombin cleavage on detection of binding” value (fixed Caco-2 cells [7]) was “significantly reduced detection of binding”.
With “gst-SARDSGPAEDGSRAVRLNGVENANTRKSSRSNPRGRRHP [GST-P31]” the “binding to fixed Caco-2 or C2BBe1 cells relative to GST control” value [5] was “bound fixed Caco-2 or C2BBe1 cells”, the “flux relative to GST alone” value [6] was “higher flux than GST alone” and the “crossreactive binding to ZElan024 (P31) and ZElan018 (PAX2)” value [8] was “no crossreactive binding”.
